US6610703B1, “Method for treatment of glycolipid storage diseases” (G.D. Searle & Co., priority 1998, dated 2003)
Blank lines part the entries; values can stand above or below the compound they belong to.

Legend:
[1] = Organ distribution of radiolabelled compound in mouse after oral gavage; type: in vivo; conditions: for distribution in mouse liver (deposition and clearance): oral gavage, 30, 60 and 90 minutes (FIG. 10); for % recovered radioactivity, Brain / % recovered radioactivity, Liver: normal mouse, gavage
Procedure: Mouse body fluids and organs were collected for different times after gavage with radiolabelled compound. Radioactivity in each sample was determined and expressed as a percentage of radio-activity recovered. Solid bars, NN-DNJ, hatched bars, NB-DNJ.
The radioactivity recovered (%) is plotted against N-alkyl chain length (C4 to C18) for 30 minutes (clear bars), 60 minutes (shaded bars) and 90 minutes (filled, black bars). […] Short chain compounds (C4-C6) are rapidly cleared in a time-dependent manner. […] The C12 to C18 analogs show the reverse trend, i.e., reduced appearance in the liver but this increases with time.
The radioactivity recovered (%) is plotted against N-alkyl chain length (C4 to C18) for 30 minutes (clear bars), 60 minutes (shaded bars) and 90 minutes (filled, black bars).
FIG. 12 is a series of four bar charts, A, B, C and D, in which radioactivity (cpm) found in the liver is plotted against time post gavage in hours (h) with four different N-alkyl analogs of deoxynojirimycin (DNJ). The four analogs shown are:; FIG. 12A, N-butyl(C4); FIG. 12B, N-nonyl (C9); FIG. 12C, N-dodecyl(C12); FIG. 12D, N-cis-13-octadecenyl (C18).
FIG. 13 is a series of four bar charts, A, B, C and D, in which radioactivity (cpm) found in the brain is plotted against time post gavage in hours (h) with the same analog compounds as in FIG. 12. The four analogs shown are: FIG. 13A, N-butyl (C4); FIG. 13B, N-nonyl (C9); FIG. 13C, N-dodecyl (C12); FIG. 13D, N-cis-13-octadecenyl (C18).
Further evidence that longer alkyl chains are taken up much better has been obtained by in vivo studies with mouse.

[2] = test system: human myeloid (HL-60) cells; test: Inhibition of glycolipid biosynthesis in HL-60 cells (radiolabelled palmitic acid, TLC, scanning densitometry); type: cell-based; conditions: for times more sensitive HL-60 cells than CHO cells: HL-60 versus CHO cells
Procedure: Cells were cultured for four days in the presence of radiolabelled palmitic acid and the following concentrations of compound:
After extraction the radioactively labelled glycolipids were separated by TLC and visualized by radioautography.
Chinese Hamster Ovary (CHO) cells and human myeloid (HL-60) cells grown in the presence of varying concentrations of inhibitor in addition to a precursor (radiolabelled palmitic acid) of glycolipid biosynthesis were treated with solvents to extract the glycolipids by the procedure described by Platt et al., J. Biol. Chem. 269, 8362-8365 (1994).
The radiolabelled lipids were separated by TLC (FIG. 1) and bands corresponding to glucosylceramide and lactosyl-ceramide were quantitated by scanning densitometry to estimate the reduction in glycolipid biosynthesis.

[3] = target: T1, HL-60 cell ceramide glucosyltransferase (Homo sapiens, UniProt Q16739); test: In vitro inhibition of HL-60 cell ceramide glucosyltransferase activity; type: biochemical; conditions: C4 to C18 series (FIG. 8)
T1 construct: endogenous in cells; host or cells: HL-60 (human myeloid) cells
T1 sequence (Q16739 1-394): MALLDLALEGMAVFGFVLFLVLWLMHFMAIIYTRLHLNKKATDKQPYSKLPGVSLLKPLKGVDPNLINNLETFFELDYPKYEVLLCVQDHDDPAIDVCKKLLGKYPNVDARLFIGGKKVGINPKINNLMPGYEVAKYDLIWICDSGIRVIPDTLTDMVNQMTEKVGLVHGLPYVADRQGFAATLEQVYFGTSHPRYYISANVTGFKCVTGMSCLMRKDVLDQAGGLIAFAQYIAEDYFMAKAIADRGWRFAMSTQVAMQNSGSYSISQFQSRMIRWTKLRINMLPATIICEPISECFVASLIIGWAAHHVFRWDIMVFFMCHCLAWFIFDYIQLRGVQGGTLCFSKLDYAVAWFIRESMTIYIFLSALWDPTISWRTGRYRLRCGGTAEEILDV

Serum Protein = test: Imino sugar (N-alkyl DNJ) binding to serum protein; type: in vitro ADME; conditions: protein bound versus non-bound radioactivity (FIG. 14)
Text: The percentage compound radioactivity is plotted against N-alkyl chain length (C4 to C18) with the protein bound percentage shown by open circles and the non-bound percentage shown by filled circles. […] Short chain compounds (C4-C6) bind poorly but those larger than C10 are almost completely bound to protein.

glycolipid biosynthesis = conditions: according to U.S. Pat. No. 5,472,969, cited from earlier work; for dose required / activity against glycolipid biosynthesis: unit not given
Hepatitis B virus (HBV) = conditions: Block et al., Nature Medicine 1998; cited from earlier work
[4] = test system: CHO, MDBK and HepG2 cells; test: Cell-associated radioactivity (uptake) of radiolabelled compound in cultured cells; type: in vitro ADME; conditions: MDBK and HepG2, incubated up to 24 hours

inhibition of ceramide glucosyltransferase versus N-alkyl chain length [3]: optimal
Compound: CCCCCCCCCCN1C[C@H](O)[C@@H](O)[C@H](O)[C@H]1CO [N-decyl-DNJ]
distribution in mouse liver (deposition and clearance) [1]: increased deposition and slower clearance
inhibition at times lower concentrations than N-butyl-DNJ ([2]; HL-60 cell-based assay): 50 times

Compound: CCCCCCCCN1CC(O)C(O)C(O)C1CO (stereo not drawn) [C8]
binding to serum protein (Serum Protein): favor equally, protein and solution phase

Compound: CCCCCCN1C[C@H](O)[C@@H](O)[C@H](O)[C@H]1CO [N-hexyl derivative of DNJ]
dose required for activity against glycolipid biosynthesis (glycolipid biosynthesis): 0.2 mg/mL

time after which the majority of radioactivity is found in the liver ([1]; mouse, post gavage (FIG. 12)): 1.5 h
% recovered radioactivity, Brain ([1]; 30 min): 0.2%
% recovered radioactivity, Liver ([1]; 30 min): 8.5%
% recovered radioactivity, Brain ([1]; 60 min): 0.1%
% recovered radioactivity, Liver ([1]; 60 min): 2.8%
% recovered radioactivity, Brain ([1]; 90 min): 0.03%
% recovered radioactivity, Liver ([1]; 90 min): 0.9%
Compound: CCCCN1C[C@H](O)[C@@H](O)[C@H](O)[C@H]1CO [N-butyl-DNJ, N-butyldeoxynojirimycin, reference compound]
dose required / activity against glycolipid biosynthesis (glycolipid biosynthesis): 0.01-0.1
times more sensitive HL-60 cells than CHO cells [2]: more than 10 times

Compound: CN1C[C@H](O)[C@@H](O)[C@H](O)[C@H]1CO [N-methyl analog]
dose required / activity against glycolipid biosynthesis (glycolipid biosynthesis): inactive

deposition in the liver ([1]; mouse, 24 h post gavage (FIG. 12)): significant deposition
Compound: CCCC/C=C\CCCCCCCCCCCCN1C[C@H](O)[C@@H](O)[C@H](O)[C@H]1CO [C18]

Compound: CCCCCCCCCN1C[C@H](O)[C@@H](O)[C@H](O)[C@H]1CO [N-nonyl-DNJ, N-nonyl-1.5-dideoxy-1,5-imino-D-glucitol]
inhibition of Hepatitis B virus (Hepatitis B virus (HBV)): effective as an inhibitor
% recovered radioactivity, Brain ([1]; 30 min): 0.4%
% recovered radioactivity, Liver ([1]; 30 min): 27.1%
% recovered radioactivity, Brain ([1]; 60 min): 0.3%
% recovered radioactivity, Liver ([1]; 60 min): 12.6%
% recovered radioactivity, Brain ([1]; 90 min): 0.4%
% recovered radioactivity, Liver ([1]; 90 min): 13.5%
distribution in mouse liver (deposition and clearance) [1]: increased deposition and slower clearance
times more sensitive HL-60 cells than CHO cells [2]: 100 times
increase of cell-associated radioactivity versus N-butyl-DNJ [4]: 3.5-5 fold
binding to serum protein (Serum Protein): favor equally, protein and solution phase
